Tests used:
[1] = system: M14; assay: Tested for cytotoxicity against M14 melanoma; type: functional, Homo sapiens
[2] = system: SF-295; assay: In vitro cytotoxicity against SF-295 (CNS cancer) cell line.; type: functional, Homo sapiens
[3] = system: DMS-273; assay: Tested for cytotoxicity against DMS 273 (small-cell lung cancer) cell line.; type: functional, Homo sapiens
[4] = system: OVCAR-3; assay: Tested for cytotoxicity against OVCAR-3 (ovarian cancer) cell line.; type: functional, Homo sapiens
[5] = molecular target: Tubulin (Bos taurus, UniProt Q6B856+Q862F3); assay: In vitro inhibition of bovine electrophoretically homogeneous tubulin polymerization.; type: functional
Tubulin, sequence (Q6B856 whole entry): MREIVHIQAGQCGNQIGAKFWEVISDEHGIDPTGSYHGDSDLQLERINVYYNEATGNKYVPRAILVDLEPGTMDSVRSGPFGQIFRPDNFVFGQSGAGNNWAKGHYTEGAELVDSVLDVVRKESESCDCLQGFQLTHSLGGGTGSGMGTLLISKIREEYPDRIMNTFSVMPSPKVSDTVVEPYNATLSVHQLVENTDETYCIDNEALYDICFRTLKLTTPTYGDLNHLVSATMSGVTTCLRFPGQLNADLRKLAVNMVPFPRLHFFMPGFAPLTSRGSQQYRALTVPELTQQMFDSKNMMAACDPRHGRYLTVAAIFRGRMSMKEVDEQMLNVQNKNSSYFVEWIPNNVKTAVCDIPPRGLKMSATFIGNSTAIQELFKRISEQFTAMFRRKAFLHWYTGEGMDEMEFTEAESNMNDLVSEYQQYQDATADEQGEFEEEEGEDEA
Tubulin, sequence (Q862F3 whole entry): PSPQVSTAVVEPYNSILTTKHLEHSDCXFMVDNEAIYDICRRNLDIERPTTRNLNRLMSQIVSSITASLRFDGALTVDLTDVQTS

[6] = system: CAKI-1; assay: Tested for cytotoxicity against CAKI-1 renal cancer; type: functional, Homo sapiens
[7] = system: HL-60; assay: Tested for cytotoxicity against human cancer cell lines HL-60(TB) (leukemia) cell line.; type: functional
[8] = system: COLO 205; assay: Tested for cytotoxicity against COLO 205 (colon cancer) cell line.; type: functional, Homo sapiens
[9] = system: NCI-H522; assay: Tested for cytotoxicity against NCI-H522 (non-small-cell lung cancer) cell line.; type: functional, Homo sapiens

| Structure (SMILES) | GI50 [1] [µM] | GI50 [2] [µM] | GI50 [3] [µM] | GI50 [4] [µM] | IC50 [5] [µM] | GI50 [6] [µM] | GI50 [7] [µM] | GI50 [8] [µM] | GI50 [9] [µM] | GI50 ([1]; Homo sapiens, M14) [µM] | GI50 ([2]; Homo sapiens, SF-295) [µM] | GI50 ([3]; Homo sapiens, DMS-273) [µM] | GI50 ([4]; Homo sapiens, OVCAR-3) [µM] | GI50 ([6]; Homo sapiens, CAKI-1) [µM] | GI50 ([7]; Homo sapiens, HL-60) [µM] | GI50 ([9]; Homo sapiens, NCI-H522) [µM] | GI50 ([8]; Homo sapiens, COLO 205) [µM] |
| --- | --- | --- | --- | --- | --- | --- | --- | --- | --- | --- | --- | --- | --- | --- | --- | --- | --- |
| COc1cc(CNc2ccc(SC)cc2)cc(OC)c1OC | 4.84 | 3.41 | 4.91 | 4.85 | 16 | 16.3 | 3.29 | 3.6 | 2.95 | – | – | – | – | – | – | – | – |
| CCc1ccc(NCc2cc(OC)c(OC)c(OC)c2)cc1 | 0.437 | 0.339 | 0.818 | 0.405 | 7.2 | – | 0.245 | 0.352 | 0.371 | – | – | – | – | – | – | – | – |
| CCOc1ccc(/N=C/c2cc(OC)c(OC)c(OC)c2)cc1 | – | – | – | – | > 40 | – | – | – | – | > 100 | > 100 | > 100 | > 100 | > 100 | > 100 | > 100 | – |
| CCCc1ccc(/N=C/c2cc(OC)c(OC)c(OC)c2)cc1 | – | – | – | – | > 40 | – | – | – | – | > 100 | > 100 | > 100 | > 100 | > 100 | 22.6 | > 100 | > 100 |

From ChEMBL document CHEMBL1126805, “Synthesis and evaluation of a series of benzylaniline hydrochlorides as potential cytotoxic and antimitotic agents acting by inhibition of tubulin polymerization” (J Med Chem, 1993)
